The results in this text go back to patent US20100062462A1, “IMMUNODEFICIENCY VIRUSES” (priority 2005, published 2010).

One test has as its target T1, HIV protease (Human immunodeficiency virus type 1 group M subtype B, UniProt P04585).
T1 construct: Jurkat T cells were transfected with 1 μg of pEYFP-protease per 10^7 cells; EYFP; expressed in transfected cells; host or cells: Jurkat T cells
Put plainly: casp8p41 production in Jurkat T cells transfected with HIV protease, flow cytometry. Type of test: cell-based. The conditions noted are these: Jurkat T cells transfected with pEYFP-protease; 7 μM Nelfinavir or 20 μM Z-VAD-fmk added immediately following transfection; assessed the following morning. As to the method:
To determine whether casp8p41 is produced specifically as a consequence of HIV-PR activity, as opposed to being produced as a consequence of apoptotic processing of procaspase 8, casp8p41 expression was assessed following HIV-PR transfection in the presence or absence of HIV-PR inhibitor, Nelfinavir, or the pan-caspase inhibitor, z-VAD-fmk. Jurkat T cells were transfected with 1 μg of pEYFP-protease per 10^7 cells using a square wave electroporator (BTX) at 320 V for 10 msec. Immediately following transfection, 7 μM Nelfinavir or 20 μM Z-VAD-fmk was added. The following morning, casp8p41 was assessed by flow cytometry.
A general note: A flow cytometer gives signals particle by particle.

A further test relates to Jurkat T cells. Put plainly: active caspase-3 and casp8p41 in Jurkat T cells treated with apoptotic stimuli, flow cytometry. The following applies: for casp8p41 immunoreactivity: same stimuli, 10 μM campothecin for 8 hours; for apoptosis, as determined by activation of caspase-3: 50 ng/mL TNF-α plus 5 μg/mL cycloheximide, 100 ng/mL SuperKillerTRAIL, 250 ng/mL anti-Fas CH-11, 2 μM Tat, 1 μg/mL gp120 for 8 hours, 10 μM Vpr-derived peptide 4 hours. In kind it is cell-based. Here is the method:
It was determined whether casp8p41 is generated in response to other apoptotic stimuli. Jurkat T cells (10^6) were treated with 10 μM campothecin, 100 ng/mL SuperKillerTRAIL™ (Axxora), 250 ng/mL anti-Fas antibody CH-11 (Upstate Cell Signaling Solutions), 50 ng/mL TNF-α (R&D Systems) plus 5 μg/mL cycloheximide, 2 μM HIV Tat (NIH AIDS Research and Reference Reagent Program), 1 μg/mL of HIV gp120 (ImmunoDiagnostic), or vehicle controls for 8 hours at 37° C. For Vpr-induced apoptosis, Jurkat T cells were incubated with isotonic glucose-Hepes buffer (2.4% glucose, 13 mM Hepes, 68 mM NaCl, 1.3 mM KCl, 4 mM Na2HPO4, and 0.7 mM KH2PO4, pH 7.2) alone or containing 10 μM of Vpr-derived peptide (amino acids 61-75; NIH AIDS Research and Reference Reagent Program) for 4 hours at 37° C. After the incubation, cells were washed in PBS and incubated overnight at 37° C. After incubation for the indicated times, cells were fixed in 2% paraformaldehyde at 4° C. overnight. To determine the presence of casp8p41 on apoptotic cells, cells were permeabilized with PBS+0.1% NP-40 on ice for two minutes. Cells were then incubated with the mouse anti-casp8p41 antibody, followed by PE-labeled goat anti-mouse antibody (Becton Dickinson ImmunoCytochemistry) and FITC-labeled rabbit anti-active caspase-3 antibody.

As to `Cc1c(O)cccc1C(=O)N[C@@H](CSc1ccccc1)[C@H](O)CN1C[C@H]2CCCC[C@H]2C[C@H]1C(=O)NC(C)(C)C` [Nelfinavir], the casp8p41 production result on HIV protease was “abrogated casp8p41 production”.

For the compound `CC[C@@]1(O)C(=O)OCc2c1cc1n(c2=O)Cc2cc3ccccc3nc2-1` [campothecin], in the test with Jurkat T cells, the casp8p41 immunoreactivity entry is “casp8p41 was not produced”.

With TNF-α, in the test on Jurkat T cells, the “apoptosis, as determined by activation of caspase-3” value is on record as “did indeed induce apoptosis” and the casp8p41 immunoreactivity entry is given as “did not generate casp8p41 immunoreactivity”.

Consider TRAIL, for which, in the test with Jurkat T cells, the “apoptosis, as determined by activation of caspase-3” value was “did indeed induce apoptosis” and the casp8p41 immunoreactivity result is “did not generate casp8p41 immunoreactivity”. Regarding Z-VAD-fmk, the casp8p41 production result on HIV protease is “did not alter casp8p41 production”.
